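Cultured in 96-well plates, cells were exposed to test compound for 48 hours across five concentrations. GI50 marks 50% less growth.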 Calls of active or inactive are those of the source. Cut-off read from the data, not from the text of the source: active = GI50 up to about 1.1 µM and inactive = higher.
Assays:
Assay in all cases: NCI tumour cell line growth inhibition, 48 h
[1] = tested on: BT-549
[2] = tested on: HCC 2998
[3] = tested on: Hs-578T
[4] = tested on: K562
[5] = tested on: LOX IMVI
[6] = tested on: MCF7
[7] = tested on: MDA-MB-231
[8] = tested on: MDA-N
[9] = tested on: NCI-H226
[10] = tested on: NCI/ADR-RES
[11] = tested on: PC-3
[12] = tested on: SR
[13] = tested on: TK-10
[14] = tested on: DLD-1
[15] = tested on: DMS-114
[16] = tested on: DMS-273
[17] = tested on: HOP-18
[18] = tested on: KM-20L2
[19] = tested on: SNB-78
[20] = tested on: XF498

SMILES | GI50 [1] | GI50 [2] | GI50 [3] | GI50 [4] | GI50 [5] | GI50 [6] | GI50 [7] | GI50 [8] | GI50 [9] | GI50 [10] | GI50 [11] | GI50 [12] | GI50 [13] | GI50 [14] | GI50 [15] | GI50 [16] | GI50 [17] | GI50 [18] | GI50 [19] | GI50 [20]
CCCSc1ccc2[nH]c(N3C(=O)/C(=C/c4cc(OC)c(OC)c(OC)c4)N=C3c3ccccc3)cc2c1 | 10.8 µM (inactive) | 13.2 µM (inactive) | 0.67 µM (active) | 8.43 µM (inactive) | 12.2 µM (inactive) | 12.6 µM (inactive) | > 37.5 µM (inactive) | 4.88 µM (inactive) | > 37.5 µM (inactive) | 11.6 µM (inactive) | 16.1 µM (inactive) | 1.66 µM (inactive) | 17 µM (inactive) |  |  |  |  |  |  | 
COc1cccc(N/C(C)=C2/CCOC2=O)c1 |  | > 10 µM (inactive) | > 10 µM (inactive) |  | > 10 µM (inactive) | > 10 µM (inactive) | 6.56 µM (inactive) | > 10 µM (inactive) | > 10 µM (inactive) | > 10 µM (inactive) | > 10 µM (inactive) | > 10 µM (inactive) | > 10 µM (inactive) |  |  |  |  |  |  | 
O=C(CCl)NC(Cc1ccc(F)cc1)C(=O)O (centres undefined) |  | > 92.7 µM (inactive) |  | > 100 µM (inactive) | > 100 µM (inactive) | > 100 µM (inactive) |  |  | > 100 µM (inactive) | > 100 µM (inactive) |  |  |  | > 88.9 µM (inactive) | > 100 µM (inactive) | > 100 µM (inactive) | > 100 µM (inactive) | > 100 µM (inactive) | > 100 µM (inactive) | > 100 µM (inactive)
Cc1sc(Cc2ccccc2)nc1-c1ccc(N)cc1 | 28.2 µM (inactive) | 19.1 µM (inactive) | 20.2 µM (inactive) | 20.7 µM (inactive) | 15.2 µM (inactive) | 19.5 µM (inactive) | 26.1 µM (inactive) |  |  | 27.7 µM (inactive) | 29.9 µM (inactive) |  | 47.5 µM (inactive) |  |  |  |  |  |  | 
Cc1c(C#N)c2nnn(C)c(=O)n2c1-c1ccccc1 | 87.7 µM (inactive) | > 100 µM (inactive) |  |  |  | 71 µM (inactive) | > 100 µM (inactive) | > 100 µM (inactive) | 62.1 µM (inactive) | 17.5 µM (inactive) | 54.5 µM (inactive) |  | > 100 µM (inactive) |  |  |  |  |  |  | 
O=C(CSc1nc2ccccc2c2ccccc12)c1ccccc1 | > 100 µM (inactive) |  | 0.0226 µM (active) | > 100 µM (inactive) | > 100 µM (inactive) | > 100 µM (inactive) | > 100 µM (inactive) | > 100 µM (inactive) | > 100 µM (inactive) | > 100 µM (inactive) | > 100 µM (inactive) | > 100 µM (inactive) | > 100 µM (inactive) |  |  |  |  |  |  | 
CC(C)OP(=O)(OC(C)C)/C(=N/Nc1ccc([N+](=O)[O-])cc1)NCCO |  | > 100 µM (inactive) |  | 71.8 µM (inactive) | 56.1 µM (inactive) |  |  |  | > 100 µM (inactive) |  |  | > 100 µM (inactive) | > 100 µM (inactive) | > 100 µM (inactive) | 90.6 µM (inactive) | > 100 µM (inactive) |  | 85.7 µM (inactive) | 99.8 µM (inactive) | > 100 µM (inactive)
O=c1ccc2ccc(S)cc2o1 | > 100 µM (inactive) | > 100 µM (inactive) | > 100 µM (inactive) |  | > 100 µM (inactive) | > 100 µM (inactive) | > 100 µM (inactive) | > 100 µM (inactive) | > 100 µM (inactive) | > 100 µM (inactive) | > 100 µM (inactive) | > 100 µM (inactive) | 92.5 µM (inactive) |  |  |  |  |  |  | 
COc1cc(Nc2c3ccccc3nc3ccccc23)ccc1NS(C)(=O)=O |  | 14.2 µM (inactive) |  | 34.4 µM (inactive) | 2.67 µM (inactive) |  |  |  | 11.2 µM (inactive) |  |  | 2.72 µM (inactive) |  | 5.14 µM (inactive) | 6.58 µM (inactive) |  | 13.3 µM (inactive) | 4.46 µM (inactive) | 7.67 µM (inactive) | 
COc1cc(Nc2nc3cc(C(F)(F)F)ccc3n3cccc23)cc(OC)c1OC | 89.5 µM (inactive) | > 100 µM (inactive) | > 100 µM (inactive) | > 100 µM (inactive) |  | > 100 µM (inactive) |  | > 100 µM (inactive) |  | 9.4 µM (inactive) | > 100 µM (inactive) |  | > 100 µM (inactive) |  |  |  |  |  |  | 
CC(O)C(O)C(N)CC=O (centres undefined) |  | > 500 µM (inactive) |  | > 500 µM (inactive) | 499 µM (inactive) | > 500 µM (inactive) |  |  | > 500 µM (inactive) | > 500 µM (inactive) |  |  |  | > 500 µM (inactive) | > 500 µM (inactive) | > 500 µM (inactive) | > 500 µM (inactive) | > 500 µM (inactive) | > 482 µM (inactive) | > 129 µM (inactive)
C=CCN1C(N)=C(C(N)=O)S/C1=C1/SC(=S)N(c2ccc(C)cc2)C1=O |  |  |  | > 100 µM (inactive) |  |  |  |  | > 100 µM (inactive) |  |  | > 100 µM (inactive) | > 100 µM (inactive) |  |  |  | 61.9 µM (inactive) |  |  | 
Cc1c2ccnc(C(F)(F)F)c2cc2c1[nH]c1ccccc12 |  | > 125 µM (inactive) |  | > 125 µM (inactive) | > 125 µM (inactive) | 17.1 µM (inactive) |  |  | 38.9 µM (inactive) | > 125 µM (inactive) |  |  |  | > 125 µM (inactive) | > 125 µM (inactive) | > 125 µM (inactive) | 0.673 µM (active) | > 125 µM (inactive) | 86.5 µM (inactive) | 12 µM (inactive)
Cn1cc(C(=O)/C(Cl)=C(\Cl)C(=O)O)c2ccccc21 |  | > 100 µM (inactive) |  | > 100 µM (inactive) |  |  |  |  | > 100 µM (inactive) |  |  |  | > 100 µM (inactive) | > 100 µM (inactive) | > 100 µM (inactive) | > 100 µM (inactive) |  | > 100 µM (inactive) | > 100 µM (inactive) | > 100 µM (inactive)
CC(C)(C)CI |  | 19.4 µM (inactive) |  | 21.6 µM (inactive) | 17.3 µM (inactive) |  |  |  |  |  |  | 25.4 µM (inactive) | > 100 µM (inactive) | 34.2 µM (inactive) | 19.7 µM (inactive) | 15.1 µM (inactive) | > 10 µM (inactive) | 32.2 µM (inactive) | 32.1 µM (inactive) | 18.5 µM (inactive)
